Measured values published in patent US20110171261A1, “IMMUNOGENIC COMPOSITION” (priority 2008, published 2011).

Columns and labels:
[1] = test system: CD4+CD25+ regulatory T cells; assay: Cell viability of Tregs; assay type: cell-based, human
CXCR4 = target: T1, CXCR4 (Homo sapiens, UniProt P61073); assay: CXCL12-mediated (CXCR4) chemotaxis of CCRF-CEM cells, specificity; assay type: cell-based; conditions: 3 nM CXCL12; 2 μM CCR4 antagonists (1000 times higher than IC50); n=2
T1 construct: Expression of chemokine receptors CCR4 and CXCR4 by CCRF-CEM cells; endogenous in cells; host or cells: CCRF-CEM
Experimental: FIG. 2: Assessment of the specificity of CCR4 antagonists. (A) Expression of chemokine receptors CCR4 and CXCR4 by CCRF-CEM cells.
Cell migration was measured by chemotaxis through a 5 μm pore polycarbonate filter in 24-well transwell chambers (Costar, Cambridge, Mass.). Chemokines (R&D systems) were placed in lower chambers in 600 μl RPMI/1% FCS medium and cells were placed in upper chambers in 100 μl medium. After 2 h incubation at 37° C., cells in the lower chamber were recovered and counted with a FACSCalibur (Becton Dickinson, Mountain View, Calif.). Preliminary chemokine titration experiments established optimal doses for chemotaxis: (1) for CCRF-CEM cells, 6 nM CCL22 and 3 nM CCL17 or CXCL12; (2) for Tregs and Th2 cells, 1.2 nM CCL22 or CCL17. To assess CCR4 antagonism, candidate antagonist compounds (10 nM) were mixed directly with chemokines as indicated. Percent inhibition of chemotaxis by CCR4 antagonists was calculated in relation to controls treated with solvent (DMSO) alone as follows: ([no. cells migrated in the presence of DMSO—no. cells migrated in the presence of antagonist]/no. cells migrated in the presence of DMSO)×100. To measure IC50 values, graded doses of antagonists were added to a constant concentration of CCL22.
CCRF-CEM also expresses another chemokine receptor, CXCR4 (FIG. 2A), which allowed the specificity of the CCR4 antagonists to be tested. With the exception of one antagonist, the compounds had no effect on either CXCR4-mediated migration (FIG. 2B) or cell viability (data not shown), even at concentrations 1000 times higher than their IC50 values (˜2 μM)

[2] = test system: HBsAg specific antibodies; assay: Anti-HBsAg IgG ELISA after rHBsAg vaccination of mice; assay type: in vivo, BALB/c mice; conditions: 14 days after second vaccination
[3] = test system: PPD-reactive IFN-γ-secreting cells; assay: T cell response (IFN-γ ELISPOT and CBA) in mice after MVA85A vaccination; assay type: in vivo, BALB/c mice; conditions: i.m., MVA85A plus ~2.5 μM antagonist, 6 days post vaccination, splenocytes, 20 μg/ml PPD; for frequency of PPD-reactive IFN-γ-secreting cells (ELISPOT): vs DMSO; for production of IFN-γ in PPD-stimulated cultures (supernatant, CBA): 18 h
CCR4 = target: T2, CCR4 (Mus musculus, UniProt P51680); assay: CCR4-mediated migration of mouse cells in vitro; assay type: cell-based; conditions: data not shown
T2 construct: endogenous in cells
T2 sequence (P51680 1-360): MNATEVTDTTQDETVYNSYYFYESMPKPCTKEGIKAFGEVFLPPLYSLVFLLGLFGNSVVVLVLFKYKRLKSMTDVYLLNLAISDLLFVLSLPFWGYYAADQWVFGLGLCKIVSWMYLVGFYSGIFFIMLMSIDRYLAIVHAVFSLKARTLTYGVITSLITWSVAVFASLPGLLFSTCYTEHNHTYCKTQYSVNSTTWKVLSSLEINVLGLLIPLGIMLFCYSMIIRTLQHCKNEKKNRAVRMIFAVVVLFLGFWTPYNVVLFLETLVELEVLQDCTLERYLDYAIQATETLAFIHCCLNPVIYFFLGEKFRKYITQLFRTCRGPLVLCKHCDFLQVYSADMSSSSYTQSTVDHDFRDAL

[4] = test system: antibody response to the HBsAg; assay: ELISA of sera of mice immunised with HBsAg in SP50 adjuvant at different concentrations (Example 6); assay type: in vivo, Balb/c mice; conditions: s.c., 0.5 micrograms HBsAg with SP50 at 1 millimolar, 100 micromolar or 10 micromolar, boost day 14, bled 14 days later, all concentrations
Excerpt: FIG. 7: CCR4 antagonist SP50 (Compound VIII—AF-399/42016530—4-(1-benzofuran-2-ylcarbonyl)-1-[5-(benzylsulfanyl)-1,3,4-thiadiazol-2-yl]-3-hydroxy-5-(2-thienyl)-1,5-dihydro-2H-pyrrol-2-one. MW: 531.64. Formula: C26H17N3O4S3) enhances the immunogenicity of a vaccine in vivo. The graph in FIG. 7 depicts the results of an ELISA assay of sera of mice immunised with HBsAg in different concentrations of SP50 adjuvant or of HBsAg in DMSO (negative control) or of HBsAG in the commercially used vaccine composition Engerix™. […] Each line represents the mean of a group of 4 mice.
6 week old female Balb/c mice were used, and immunised with a recombinant Hepatitis B surface antigen (HBsAg) from Biospacific, 598 Horton St no 225, Emeryville Calif. 94608, Catalogue number J44050228 lot number 4475.
Groups of 4 mice were given 0.5 micrograms of HBsAg subcutaneously in 25 microlitres of saline with an equal volume of SP50 at concentrations of 1 millimolar, 100 micromolar or 10 micromolar. Controls received 0.5 micrograms of HBsAg plus 25 microlitres of DMSO (the vehicle used to dissolve the SP50). A second control group received a dose of the alum-adjuvanted commercial Hepatitis B vaccine “Engerix” containing 0.5 micrograms of HBsAg. 14 days later the mice were boosted in an identical fashion and they were bled out a further 14 days later. […]

T1 sequence (P61073 whole entry): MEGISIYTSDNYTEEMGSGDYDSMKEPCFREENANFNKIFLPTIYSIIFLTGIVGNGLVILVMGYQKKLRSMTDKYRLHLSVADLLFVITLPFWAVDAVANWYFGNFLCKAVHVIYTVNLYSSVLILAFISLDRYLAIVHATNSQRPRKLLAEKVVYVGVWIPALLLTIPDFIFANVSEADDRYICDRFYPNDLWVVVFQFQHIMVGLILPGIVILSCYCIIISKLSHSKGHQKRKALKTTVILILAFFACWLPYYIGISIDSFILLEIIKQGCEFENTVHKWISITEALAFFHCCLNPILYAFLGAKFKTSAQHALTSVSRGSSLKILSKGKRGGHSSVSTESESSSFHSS

Row | SMILES | effect on cell viability [1] | effect on CXCL12-mediated chemotaxis (CXCR4-mediated migration) of CCRF-CEM cells (CXCR4) | IgG subclass of anti-HBsAg IgG response [2] | titer of HBsAg specific antibodies (IgG, ELISA) ([2]; s.c., rHBsAg plus compound (~2.5 μM), vs DMSO) | frequency of PPD-reactive IFN-γ-secreting cells (ELISPOT) [3] | production of IFN-γ in PPD-stimulated cultures (supernatant, CBA) [3] | inhibition of CCR4-mediated migration of mouse cells in vitro (CCR4) | antibody response to the HBsAg (ELISA of sera) [4]
1 | O=C(C1=C(O)C(=O)N(c2nnc(SCc3ccccc3Cl)s2)C1c1ccc(Cl)c(Cl)c1)c1cc2ccccc2o1 (stereo not shown) [(III)] | None of the compounds affected cell viability | do not inhibit |  |  |  |  |  | 
2 | O=C(C1=C(O)C(=O)N(c2nnc(SCc3ccccc3)s2)C1c1cccs1)c1cc2ccccc2o1 (stereo not shown) [compound (VIII), 4-(1-benzofuran-2-ylcarbonyl)-1-[5-(benzylsulfanyl)-1,3,4-thiadiazol-2-yl]-3-hydroxy-5-(2-thienyl)-1,5-dihydro-2H-pyrrol-2-one] | None of the compounds affected cell viability | do not inhibit | predominantly of the IgG1 subtype | significantly enhanced the titer of HBsAg specific antibodies to a level similar to that of Engerix-B | significantly enhanced | significantly greater production | inhibit | greater than that to Engerix™
3 | CCc1ccc(C2C(C(=O)c3cc4ccccc4o3)=C(O)C(=O)N2c2nnc(SCc3ccccc3F)s2)cc1 (stereo not shown) [(VI)] | None of the compounds affected cell viability | do not inhibit |  |  |  |  |  | 
4 | O=C(CSc1nc(-c2ccccc2)c(-c2ccccc2)o1)Nc1ccc(S(=O)(=O)Nc2nccs2)cc1 [(XI)] | None of the compounds affected cell viability | do not inhibit |  |  |  |  |  | 
5 | O=C(C1=C(O)C(=O)N(c2nnc(SCc3ccc(Cl)cc3)s2)C1c1cccs1)c1cc2ccccc2o1 (stereo not shown) [(V)] | None of the compounds affected cell viability | do not inhibit |  |  | significantly enhanced | significantly greater production | inhibit | 
